Test results as given in patent US10172835B2, “Anticancer agent composition” (J-Pharma Co., Ltd., priority 2014, dated 2019).

Legend:
[1] = system: KO99L cells; assay: BrdU incorporation Elisa (proliferation) on KO99L cells; assay type: cell-based, murine; details: 10.0 μM, after 48 h
Experimental: (§1) Two different assays were employed: i) In a 96-well plate format, cells (4.0±0.1×10^4 per well; 100 μL) were incubated with effectors (48 h, 37° C.; n=4 per experiment) and then WST-1 reagent (10 μL; Roche Diagnostics) added to each well of 96-well plates, incubated, and the formazan production was measured at 490 nm; and ii) cells (2.0±0.1×10^4 per well; 100 μL) were incubated with effectors (48 h, 37° C.; n=4 per experiment) and then bromodeoxyuridine reagent (10 μL/well; Roche Diagnostics) was added to each well and incubated (8 h, 37° C.). The cells were then fixed, denatured and incubated with anti-BrdU-conjugated with peroxidase (POD) antibody (100 μL/well). Colorimetric substrate (TMB: tetramethyl-benzidine; 100 μL/well) was added and BrdU incorporation quantified via optical density measurement (450 nm) which corresponds to DNA synthesis and proliferating cells.

[2] = system: freshly isolated tPTEN−/− tumor cells; assay: WST-1 cell viability of freshly isolated primary tPTEN−/− tumor cells; assay type: cell-based, murine; details: concentration dependent manner
Experimental: as §1

[3] = system: normal murine thymocytes; assay: WST-1 cell viability of normal thymocytes; assay type: cell-based
Experimental: as §1

[4] = system: Jurkat T-ALL line; assay: Cell viability of Jurkat human T-ALL cells; assay type: cell-based
Experimental: as §1

[5] = system: Jurkat T-ALL line; assay: Cell proliferation of Jurkat human T-ALL cells; assay type: cell-based
Experimental: as §1

[6] = system: normal resting or activated human PBL cells; assay: Cell death analysis of resting or activated human PBL; assay type: cell-based
[7] = system: normal cord blood mononuclear cells; assay: Viability of normal human cord blood mononuclear cells (DAPI, Facs); assay type: cell-based; details: 5.0 and 10.0 μM, 48 h
[8] = system: KO99L cells; assay: Annexin-V / DAPI apoptosis assay, KO99L cells; assay type: cell-based, murine; details: 48 hr
Experimental: Apoptosis assessment was performed by measuring phosphatidyl-serine membrane redistribution via annexin-V-FITC (Invitrogen). Cells (5.0±0.1×10^5 per well; 2.0 mL) were incubated with effectors, and re-suspended in staining solution (110 μL; Annexin-V ( 1/10) and incubated in the dark (15 min, RT). […] Basal apoptosis and necrosis were determined on control untreated cells.

[9] = system: KO99L cells; assay: Mitochondrial trans-membrane potential (TMRE staining), KO99L cells; assay type: cell-based, murine
Experimental: Mitochondrial trans-membrane potential (ψm) changes as a function of apoptotic events were measured using Tetra Methyl Rhodamine Ethyl Ester Perchlorate assay (TMRE; Molecular Probes). […] Thereafter, the cells were washed twice with PBS and then stained with DAPI (Sigma-Aldrich, 1.0 μg/mL) and examined via a MACSQuant Analyser (Miltenyi Biotech) and the data evaluated via FlowJo software.

[10] = system: caspase 3; assay: Western blot of caspase 3 activation and PARP cleavage, KO99L cells; assay type: cell-based, murine; details: 10.0 μM
Experimental: (§2) Cell extracts were prepared using a cell lysis buffer (50 mM HEPES, pH 7.4, 150 mM NaCl, 20 mM EDTA, 100 mM NaF, 10 mM Na3VO4, 0.5% nonyl phenoxypolyethoxylethanol (NP40) supplemented with a cocktail of protease inhibitors. After SDS-PAGE separation and transfer to nitrocellulose immunoblotting was performed using the following antibodies against: Akt (Cell Signaling Technologies, #9272), CHOP (#2895), cleaved caspase 3 (#9664), c-Myc (#9402), eIF2a (#9721), 4EBP1 (#9644), LC3A/B (#12741), PARP (#9542), pJnk (T183/Y185) (#9251), pSer235-236-S6RP (#4856), pSer473-Akt (#9271), pSer65-4EBP1 (#9451) and S6RP (#2217); Bax (Sigma-Aldrich, B8429); PUMA (Abcam, ab54288); Bak (Millipore, 06536); ATF4 (Santa Cruz Biotechnologies, sc200), GADD34 (sc8327), Hsp60 (sc-1722), Hsp90 (sc-13119) and XBP1 (sc-7160); ATF6 (Imgenex, IMG-273).

[11] = system: caspase 3; assay: Western blot of caspase 3 activation and PARP cleavage in primary tPTEN−/− tumor cells (KO#732); assay type: cell-based, murine; details: primary KO#732 cells; COMPOUND-JP 5.0, 10.0 μM; PI-103 10.0 μM; rapamycin 10.0 nM; 2.0-18.0 h
Experimental: as §2

[12] = system: mTORC1 / Akt activation; assay: Western blot of S6RP, 4EBP1 and Akt phosphorylation, KO99L cells; assay type: cell-based, murine; details: 2.0-24 h; COMPOUND-JP 10.0 μM; MK-2206 5.0 μM; KU0063794 5.0 μM; rapamycin 10.0 nM; L-Asp, Erw 2.5 units/ml; velcade at 24 h
[13] = system: Unfolded Protein Response components; assay: Western blot of ISR/UPR components, KO99L cells; assay type: cell-based, murine; details: 10.0 μM
Experimental: as §2

[14] = system: KO99-RJ cells; assay: WST-1 cell viability of COMPOUND-JP-resistant KO99-RJ cells; assay type: cell-based, murine; details: Mus musculus, 48 h, read-out: decrease in cell viability
Experimental: as §1

[15] = system: KO99-S cells; assay: Cell death (PI staining) of parental KO99-S cells; assay type: cell-based, murine; details: 48 h
[16] = system: 44As3-11 cell derived from human scirrhous stomach cancer; assay: MTT proliferation of 44As3-11 cells; assay type: cell-based; details: 44As3-11, culture 5 days
Experimental: The culture in the absence of COM-JP and in the presence of COM-JP with different concentrations in the culture medium of each cancer cell was continued for 5 days. Proliferation activity of the cell on each elapsed day was measured by a MTT method.

[17] = system: caspase 3; assay: Active caspase 3 staining with Red-DEVD-fmk, KO99L cells; assay type: cell-based, murine; details: countered by QvD-OPH
Experimental: Cells (1.0±0.1×10^6 per well; 1.0 mL) were stimulated with different COMPOUND-JP doses with or without caspase3 inhibitor Qvd-OH (20 μM). Cells were then stained with caspase 3 inhibitor conjugated (RED-DEVD-FMK; Biovision) and incubated (1.0 h, 37° C. at 5% CO2). Cells were washed with Wash Buffer, then centrifuged (3000 rpm, 5.0 min) and stained with annexin V-FITC (10 μL/mL; Miltenyi Biotech) for 30 min and DAPI (1.0 μg/mL) added prior to examination via a MacsQuant Analyser.

[18] = system: HT-29 colon cancer cells; details: Reference 43; cited from earlier work

## Nc1cc(COc2c(Cl)cc(C[C@H](N)C(=O)O)cc2Cl)c2oc(-c3ccccc3)nc2c1 [COMPOUND-JP, O-(5-amino-2-phenylbenzoxazole-7-yl)methyl-3,5-dichloro-L-tyrosine]
[1]
  diminished cell cycling (proliferation): 75%
[2]
  cell viability in freshly isolated tPTEN−/− tumor cells: influenced cell viability
[3]
  toxicity in normal murine thymocytes: non-toxic
[4]
  cell survival: alter cell survival
[5]
  proliferation: alter
[6]
  cell death: did not induce cell death
[7]
  normal cord blood mononuclear cells (living cells): did not significantly alter
[8]; 10.0 μM
  levels of apoptosis (annexin-V+ and annexin-V+/DAPI+) compared to control: 2.8 fold
[8]; 20.0 μM
  levels of apoptosis (annexin-V+ and annexin-V+/DAPI+) compared to control: 3.8 fold
[9]; 5.0 and 10.0 μM
  Mitonchondrial Outer Membrane Permeabilization (MOMP): cause MOMP
[9]; highest concentration tested (20.0 μM), 48 hr
  mitochondrial depolarization: 70%
[10]; 48 hr
  caspase 3 cleavage: essentially all cellular caspase 3 was processed
[10]; four-to-six hour post addition
  caspase 3 cleavage: caspase 3 cleavage could be observed
[10]; 24 h
  PARP cleavage: fully cleaved
[11]
  caspase 3 processing and PARP cleavage (apoptosis): induced caspase 3 processing and PARP cleavage
[12]
  4EBP1 phosphorylation: no effect
  Akt phosphorylation (serine 473) / activation: interfered with Akt activation
  S6RP phosphorylation (mTORC1 activation): affect mTORC1 activation as early as 2.0 h
[13]
  GADD34: expression
  full length XBP1: gradually disappeared
[13]; 2.0 h
  p38 stress pathway: strongly activated
[13]; 6.0 h
  ATF4: induction
[13]; 18.0 h
  ATF6: induction
[13]; 24 h
  eIF2 phosphorylation: De-phosphorylation
[14]
  cytotoxicity at 40 µM: ~40%
[15]
  cell death: concentration dependent cell death
[16]
  proliferation activity: dose-dependent decrease
[17]
  cell-associated fluorescence via Red-DEVD-fmk (caspase 3 activation): dose and time-dependent
[18]
  growth of HT-29 colon cancer cells transplanted in nude mice: reduce the growth
